In brackets after ≈: the same amount, converted by molar mass. Values belong to the compound of their own block, whether it stands above or below them.
Tests used:
P. acnes [1] = assay: Agar dilution method: growth of P. acnes and MIC, fatty acid compounds in combination with other compounds; type: cell-based, Propionibacterium acnes; conditions: for MIC (mg/mL) with 0.05 mg/mL 15-HETrE spike / MIC (mg/mL) with 0.1 mg/mL 15-OHEPA spike: itself an inhibitory concentration
Method: Several compounds including fatty acids such as DGLA, 15-OHEPA, and 15-HETrE were tested to determine their capacity to inhibit the growth of P. acnes. In an exemplary method, an agar dilution method was used to determine the minimum inhibitory concentration (MIC) of each tested compound. Briefly, the agar dilution method involved preparing a series of concentrations of each compound (e.g., nicotinamide, benzoyl peroxide, adapalene, metronidazole, DGLA, 15-OHEPA, and 15-HETrE) in a Reinforced Clostridial Agar (RCA) media that facilitates growth of P. acnes under anaerobic conditions. An inoculum of P. acnes was prepared by incubation of P. acnes for approximately seven days at 35-37° C. to achieve a ≧1.0 OD600 inoculum of P. acnes in RCM broth. A portion of this inoculum was then added to the surface of each plate as a 10 μL spot and incubated at 35-37° C. for 72 hours or more. Growth of P. acnes was then observed and compared to control plates in which no compound has been added, and positive inhibition plates prepared with erythromycin. […] The growth of P. acnes in the presence of nicotinamide, benzoyl peroxide, adapalene, metronidazole, DGLA, 15-OHEPA, and 15-HETrE was determined with varying concentrations of the compound (see, Table 2). Next, the MIC was determined as the concentration at which a marked reduction (+) occurs in the appearance of growth on the test plate (as per Clinical and Laboratory Standards Institute M11-A7). The compounds tested singly in Example 1 were tested in combination with one another to determine the capacity of the combination to inhibit the growth of P. acnes. In an exemplary method, the MIC was determined for each of the combination as described in Example 1. Briefly, test combinations included DGLA with nicotinamide, benzoyl peroxide, adapalene, or metronidazole; 15-HETrE with nicotinamide, benzoyl peroxide, adapalene, or metronidazole; and 15-OHEPA with nicotinamide, benzoyl peroxide, adapalene, or metronidazole. The tables below show the growth of P. acnes in the presence of 0.4 or 1.0 mg/mL DGLA with varying concentrations of nicotinamide, benzoyl peroxide, adapalene, or metronidazole (Table 3); the growth of P. acnes in the presence of 0.01 or 0.05 mg/mL 15-HETrE with varying concentrations of nicotinamide, benzoyl peroxide, adapalene, or metronidazole (Table 5); and the growth of P. acnes in the presence of 0.5 or 0.1 mg/mL 15-OHEPA with varying concentrations of nicotinamide, benzoyl peroxide, adapalene, or metronidazole (Table 7).

P. acnes [2] = assay: Agar dilution method: growth of P. acnes and MIC, compounds tested singly; type: cell-based, Propionibacterium acnes; design: key to Growth Index (+++, ++, +, −) Plate 1 / Growth Index (+++, ++, +, −) Plate 2 / Growth Index (+++, ++, +, −) Plate 3 / Growth Index (+++, ++, +, −) Avg: +++: confluent growth (comparable to control); ++: less confluent growth; +: marked reduction in growth to multiple tiny, single colonies; −: no growth present; conditions: for MIC: Cutibacterium acnes, compound alone, MIC = concentration with marked reduction (+) of growth, read-out: MIC (mg/mL) as per P-11-0007 or P-11-0008 Addendum A
Method: Several compounds including fatty acids such as DGLA, 15-OHEPA, and 15-HETrE were tested to determine their capacity to inhibit the growth of P. acnes. In an exemplary method, an agar dilution method was used to determine the minimum inhibitory concentration (MIC) of each tested compound. Briefly, the agar dilution method involved preparing a series of concentrations of each compound (e.g., nicotinamide, benzoyl peroxide, adapalene, metronidazole, DGLA, 15-OHEPA, and 15-HETrE) in a Reinforced Clostridial Agar (RCA) media that facilitates growth of P. acnes under anaerobic conditions. An inoculum of P. acnes was prepared by incubation of P. acnes for approximately seven days at 35-37° C. to achieve a ≧1.0 OD600 inoculum of P. acnes in RCM broth. A portion of this inoculum was then added to the surface of each plate as a 10 μL spot and incubated at 35-37° C. for 72 hours or more. Growth of P. acnes was then observed and compared to control plates in which no compound has been added, and positive inhibition plates prepared with erythromycin. […] The growth of P. acnes in the presence of nicotinamide, benzoyl peroxide, adapalene, metronidazole, DGLA, 15-OHEPA, and 15-HETrE was determined with varying concentrations of the compound (see, Table 2). Next, the MIC was determined as the concentration at which a marked reduction (+) occurs in the appearance of growth on the test plate (as per Clinical and Laboratory Standards Institute M11-A7).

MIC (mg/mL) with 0.01 mg/mL 15-HETrE spike (P. acnes [1]; 0.01 mg/mL 15-HETrE spike): >1 mg/mL
MIC (mg/mL) with 0.05 mg/mL 15-HETrE spike (P. acnes [1]): <0.2 mg/mL
MIC (mg/mL) with 0.05 mg/mL 15-OHEPA spike (P. acnes [1]; 0.05 mg/mL 15-OHEPA spike): >1 mg/mL
MIC (mg/mL) with 0.1 mg/mL 15-OHEPA spike (P. acnes [1]): <0.2 mg/mL
MIC (mg/mL) with 0.4 mg/mL dGLA spike (P. acnes [1]; 0.4 mg/mL dGLA spike, dGLA supplied by Sigma, cat# E4504): >1 mg/mL
MIC (mg/mL) with 1.0 mg/mL dGLA spike (P. acnes [1]; 1.0 mg/mL dGLA spike, dGLA supplied by Cayman, cat# 90230): >1 mg/mL
MIC (P. acnes [2]): > 1 mg/mL
SMILES: Cc1ncc([N+](=O)[O-])n1CCO [Metronidazole]
growth of P. acnes in combination with 15-HETrE compared with 15-HETrE alone (P. acnes [1]): did not reduce the growth of P. Acnes below that of 15-HETrE used alone
growth of P. acnes in combination with 15-OHEPA compared with 15-OHEPA alone (P. acnes [1]): did not reduce the growth of P. Acnes below that of 15 OHEPA used alone
growth of P. acnes in combination with DGLA compared with DGLA alone (P. acnes [1]): did not reduce the growth of P. Acnes below that of DGLA used alone
Growth Index (+++, ++, +, −) Avg (P. acnes [2]; compound at 0.2 mg/mL in agar): +++
Growth Index (+++, ++, +, −) Plate 1 (P. acnes [2]; compound at 0.2 mg/mL in agar): +++
Growth Index (+++, ++, +, −) Plate 2 (P. acnes [2]; compound at 0.2 mg/mL in agar): +++
Growth Index (+++, ++, +, −) Plate 3 (P. acnes [2]; compound at 0.2 mg/mL in agar): +++
Growth Index (+++, ++, +, −) Avg (P. acnes [2]; compound at 0.4 mg/mL in agar): +++
Growth Index (+++, ++, +, −) Plate 1 (P. acnes [2]; compound at 0.4 mg/mL in agar): +++
Growth Index (+++, ++, +, −) Plate 2 (P. acnes [2]; compound at 0.4 mg/mL in agar): +++
Growth Index (+++, ++, +, −) Plate 3 (P. acnes [2]; compound at 0.4 mg/mL in agar): +++
Growth Index (+++, ++, +, −) Avg (P. acnes [2]; compound at 0.6 mg/mL in agar): +++
Growth Index (+++, ++, +, −) Plate 1 (P. acnes [2]; compound at 0.6 mg/mL in agar): +++
Growth Index (+++, ++, +, −) Plate 2 (P. acnes [2]; compound at 0.6 mg/mL in agar): +++
Growth Index (+++, ++, +, −) Plate 3 (P. acnes [2]; compound at 0.6 mg/mL in agar): +++
Growth Index (+++, ++, +, −) Avg (P. acnes [2]; compound at 0.8 mg/mL in agar): +++
Growth Index (+++, ++, +, −) Plate 1 (P. acnes [2]; compound at 0.8 mg/mL in agar): +++
Growth Index (+++, ++, +, −) Plate 2 (P. acnes [2]; compound at 0.8 mg/mL in agar): +++
Growth Index (+++, ++, +, −) Plate 3 (P. acnes [2]; compound at 0.8 mg/mL in agar): +++
Growth Index (+++, ++, +, −) Avg (P. acnes [2]; compound at 1.0 mg/mL in agar): +++
Growth Index (+++, ++, +, −) Plate 1 (P. acnes [2]; compound at 1.0 mg/mL in agar): +++
Growth Index (+++, ++, +, −) Plate 2 (P. acnes [2]; compound at 1.0 mg/mL in agar): ++
Growth Index (+++, ++, +, −) Plate 3 (P. acnes [2]; compound at 1.0 mg/mL in agar): +++

MIC (mg/mL) with 0.05 mg/mL 15-HETrE spike (P. acnes [1]): <1 mg/mL
MIC (mg/mL) with 0.1 mg/mL 15-OHEPA spike (P. acnes [1]): <1 mg/mL
MIC (P. acnes [2]): 10 to 15 mg/mL (≈ 81.9 to 123 mM)
SMILES: NC(=O)c1cccnc1 [Nicotinamide]
growth of P. acnes in combination with 15-HETrE compared with 15-HETrE alone (P. acnes [1]): did not reduce the growth of P. Acnes below that of 15-HETrE used alone
growth of P. acnes in combination with 15-OHEPA compared with 15-OHEPA alone (P. acnes [1]): did not reduce the growth of P. Acnes below that of 15 OHEPA used alone
growth of P. acnes in combination with DGLA compared with DGLA alone (P. acnes [1]): did not reduce the growth of P. Acnes below that of DGLA used alone
Growth Index (+++, ++, +, −) Avg (P. acnes [2]; compound at 1 mg/mL in agar): +++
Growth Index (+++, ++, +, −) Plate 1 (P. acnes [2]; compound at 1 mg/mL in agar): +++
Growth Index (+++, ++, +, −) Plate 2 (P. acnes [2]; compound at 1 mg/mL in agar): +++
Growth Index (+++, ++, +, −) Plate 3 (P. acnes [2]; compound at 1 mg/mL in agar): +++
Growth Index (+++, ++, +, −) Avg (P. acnes [2]; compound at 5 mg/mL in agar): +++
Growth Index (+++, ++, +, −) Plate 1 (P. acnes [2]; compound at 5 mg/mL in agar): +++
Growth Index (+++, ++, +, −) Plate 2 (P. acnes [2]; compound at 5 mg/mL in agar): +++
Growth Index (+++, ++, +, −) Plate 3 (P. acnes [2]; compound at 5 mg/mL in agar): +++
Growth Index (+++, ++, +, −) Avg (P. acnes [2]; compound at 10 mg/mL in agar): ++
Growth Index (+++, ++, +, −) Plate 1 (P. acnes [2]; compound at 10 mg/mL in agar): ++
Growth Index (+++, ++, +, −) Plate 2 (P. acnes [2]; compound at 10 mg/mL in agar): ++
Growth Index (+++, ++, +, −) Plate 3 (P. acnes [2]; compound at 10 mg/mL in agar): ++
Growth Index (+++, ++, +, −) Avg (P. acnes [2]; compound at 15 mg/mL in agar): +
Growth Index (+++, ++, +, −) Plate 1 (P. acnes [2]; compound at 15 mg/mL in agar): −
Growth Index (+++, ++, +, −) Plate 2 (P. acnes [2]; compound at 15 mg/mL in agar): +
Growth Index (+++, ++, +, −) Plate 3 (P. acnes [2]; compound at 15 mg/mL in agar): +
